In BigSolDB 2.1:

NNC(=O)c1ccccc1
solubility (mole fraction)
Details | 283.15 K | 288.15 K | 293.15 K | 298.15 K | 303.15 K | 308.15 K | 313.15 K | 318.15 K | 323.15 K
in ethanol | 0.0137 | 0.0169 | 0.0203 | 0.0283 | 0.0376 | 0.0481 | 0.0605 | 0.0805 | 0.101
in isopropanol | 0.0112 | 0.0135 | 0.0173 | 0.0231 | 0.0299 | 0.0384 | 0.0489 | 0.0623 | 0.0761
in methanol | 0.0363 | 0.0425 | 0.0515 | 0.0605 | 0.0727 | 0.0843 | 0.103 | 0.118 | 0.137
in n-butanol | 0.0087 | 0.0107 | 0.0132 | 0.0185 | 0.0244 | 0.0321 | 0.041 | 0.0519 | 0.0665
in n-propanol | 0.0129 | 0.0155 | 0.019 | 0.026 | 0.0319 | 0.0421 | 0.0536 | 0.068 | 0.0834
in water | 0.00505 | 0.00662 | 0.00868 | 0.0116 | 0.0154 | 0.0203 | 0.0267 | 0.0348 | 0.0453

NNC(=O)c1ccccc1O
solubility (mole fraction)
Details | 283.15 K | 288.15 K | 293.15 K | 298.15 K | 303.15 K | 308.15 K | 313.15 K | 318.15 K | 323.15 K
in ethanol | 0.0095 | 0.0115 | 0.0132 | 0.0161 | 0.0189 | 0.0224 | 0.0278 | 0.0316 | 0.0379
in isopropanol | 0.00719 | 0.00841 | 0.0102 | 0.0124 | 0.015 | 0.0181 | 0.0219 | 0.0261 | 0.0316
in methanol | 0.0122 | 0.015 | 0.017 | 0.0198 | 0.0243 | 0.0278 | 0.0326 | 0.0382 | 0.0462
in n-butanol | 0.00861 | 0.00985 | 0.0115 | 0.013 | 0.0148 | 0.0165 | 0.0188 | 0.0216 | 0.025
in n-propanol | 0.00748 | 0.0097 | 0.0112 | 0.0138 | 0.016 | 0.0189 | 0.024 | 0.0283 | 0.0334
in water | 0.0122 | 0.0146 | 0.0182 | 0.0223 | 0.028 | 0.0355 | 0.0435 | 0.0541 | 0.0665
